The target of this experiment is T1, Kv7.2/7.3 (Homo sapiens, UniProt O43525+O43526).
T1 construct: Kv7.2 tetracycline-induced, Kv7.3 constitutive
Put plainly: Kv7.2/7.3 Activation Assay (Thallium Flux Assay). It is filed as cell-based. Particulars: hKV7.2/7.3 cell line; test compound at single concentration of 10 μM; fluorescence at 90 sec normalized to positive control (retigabine, 30 μM). In a few lines:
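Single-point activity at 10 μM (0.1% DMSO, HEPES-buffered saline, pH 7.4) was scored from fluorescence at 90 s relative to 30 μM retigabine. Categories were none <0.15, moderate 0.15-0.7 and high >0.7. Thallium influx after stimulus addition was followed with FluxOR II Green dye in hKv7.2/7.3 cells, Kv7.2 expressed under overnight tetracycline (10 ng/mL) induction.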
On to `Cn1nc(NC(=O)NC(C)(C)C)c(C2CCC2)c1-c1ccc(F)cc1` [Compound 245, 1-(tert-butyl)-3-(4-cyclobutyl-5-(4-fluorophenyl)-1-methyl-1H-pyrazol-3-yl)urea], for which the “Kv7.2/7.3 Activity” value is “+ (“+” Moderate Activity 0.15-0.7)”.

Regarding `CC[C@H](C)CC(=O)Nc1nn(C)c(-c2ccc(F)cc2)c1C1CCC1` [Compound 104, (S)-N-(4-cyclobutyl-5-(4-fluorophenyl)-1-methyl-1H-pyrazol-3-yl)-3-methylpentanamide], the “Kv7.2/7.3 Activity” value was “++ (“++” High Activity ≥ 0.7)”.

For `Cn1nc(NC(=O)OC2CC(F)(F)C2)c(C2CCC2)c1-c1ccc(F)cc1` [Compound 241, 3,3-difluorocyclobutyl (4-cyclobutyl-5-(4-fluorophenyl)-1-methyl-1H-pyrazol-3-yl)carbamate], the “Kv7.2/7.3 Activity” value is reported as “++ (“++” High Activity ≥ 0.7)”. The result for `Cn1nc(NC(=O)OC2CC(F)(F)C2)c(C2CCC2)c1-c1ccc(C(F)(F)F)cc1` [Compound 279, 3,3-difluorocyclobutyl (4-cyclobutyl-1-methyl-5-(4-(trifluoromethyl)phenyl)-1H-pyrazol-3-yl)carbamate] reads “+ (“+” Moderate Activity 0.15-0.7)”; that for `C[C@@H](C(=O)Nc1nn(C)c(-c2ccc(F)cc2)c1C1CCC1)C1CC(F)(F)C1` [Compound 132, (R)-N-(4-cyclobutyl-5-(4-fluorophenyl)-1-methyl-1H-pyrazol-3-yl)-2-(3,3-difluorocyclobutyl)propanamide], “+ (“+” Moderate Activity 0.15-0.7)”; that for `Cn1nc(NC(=O)CC2CC(F)(F)C2)c(C2CCC2)c1-c1ccc(F)cc1F` [Compound 98, N-(4-cyclobutyl-5-(2,4-difluorophenyl)-1-methyl-1H-pyrazol-3-yl)-2-(3,3-difluorocyclobutyl)acetamide], “++ (“++” High Activity ≥ 0.7)”. The result for `Cc1nc(C)c(-c2c(C3CCC3)c(NC(=O)C3(C(F)(F)F)CC3)nn2C)s1` [Compound 149, N-(4-cyclobutyl-5-(2,4-dimethylthiazol-5-yl)-1-methyl-1H-pyrazol-3-yl)-1-(trifluoromethyl)cyclopropane-1-carboxamide] reads “− (“−” No Activity < 0.15)”; that for `Cn1nc(NC(=O)NC2CC(F)(F)C2)c(C2CCC2)c1-c1cc(F)cc(F)c1` [Compound 270, 1-(4-cyclobutyl-5-(3,5-difluorophenyl)-1-methyl-1H-pyrazol-3-yl)-3-(3,3-difluorocyclobutyl)urea], “++ (“++” High Activity ≥ 0.7)”.

For the compound `O=C(C[C@@H]1CC(F)(F)C1(F)F)Nc1nn(CCO)c(-c2ccc(F)cc2)c1C1CCC1` [Compound 58, (R)-N-(4-cyclobutyl-5-(4-fluorophenyl)-1-(2-hydroxyethyl)-1H-pyrazol-3-yl)-2-(2,2,3,3-tetrafluorocyclobutyl)acetamide], the “Kv7.2/7.3 Activity” value was “++ (“++” High Activity ≥ 0.7)”.

`Cn1nc(NC(=O)OC2CC(F)(F)C2)c(C2CCC2)c1-c1ccc(OC(F)(F)F)cc1` [Compound 281, 3,3-difluorocyclobutyl (4-cyclobutyl-1-methyl-5-(4-(trifluoromethoxy)phenyl)-1H-pyrazol-3-yl)carbamate]: the “Kv7.2/7.3 Activity” value is on record as “++ (“++” High Activity ≥ 0.7)”. As for `Cn1nc(NC(=O)C(C2CC2)C2CC2)c(C2CCC2)c1-c1ccc(F)cc1` [Compound 196, N-(4-cyclobutyl-5-(4-fluorophenyl)-1-methyl-1H-pyrazol-3-yl)-2,2-dicyclopropylacetamide], the entry is “+ (“+” Moderate Activity 0.15-0.7)”; as for `Cc1nnsc1-c1c(C2CCC2)c(NC(=O)C2CC(F)(F)C2)nn1C` [Compound 225, N-(4-cyclobutyl-1-methyl-5-(4-methyl-1,2,3-thiadiazol-5-yl)-1H-pyrazol-3-yl)-3,3-difluorocyclobutane-1-carboxamide], “+ (“+” Moderate Activity 0.15-0.7)”.

For the origin of these results see patent publication US20250171430A1, “PYRAZOLYL COMPOUNDS AS KV7 CHANNEL ACTIVATORS” (Biohaven Therapeutics Ltd., priority 2022, published 2025).
